According to PubChem BioAssay (NCI):
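Test compounds were applied to cells in 96-well plates for 48 hours at 5 doses. At the GI50, growth is halved. TGI: total growth inhibition.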

Key:
Test in all cases: DTP human tumour cell line panel, 48 h
SNB-75 CNS = tested on: SNB-75 CNS
786-0 renal = tested on: 786-0 renal
HCT-15 colon = tested on: HCT-15 colon
OVCAR-5 ovarian = tested on: OVCAR-5 ovarian
COLO 205 colon = tested on: COLO 205 colon
K-562 leukemia = tested on: K-562 leukemia
NCI-H23 lung = tested on: NCI-H23 lung
OVCAR-8 ovarian = tested on: OVCAR-8 ovarian
IGROV1 ovarian = tested on: IGROV1 ovarian
RXF 393 renal = tested on: RXF 393 renal

Row | SMILES | GI50 (SNB-75 CNS) [µM] | TGI (SNB-75 CNS) [µM] | GI50 (786-0 renal) [µM] | TGI (786-0 renal) [µM] | GI50 (HCT-15 colon) [µM] | TGI (HCT-15 colon) [µM] | GI50 (OVCAR-5 ovarian) [µM] | TGI (OVCAR-5 ovarian) [µM] | GI50 (COLO 205 colon) [µM] | TGI (COLO 205 colon) [µM] | GI50 (K-562 leukemia) [µM] | TGI (K-562 leukemia) [µM] | GI50 (NCI-H23 lung) [µM] | TGI (NCI-H23 lung) [µM] | GI50 (OVCAR-8 ovarian) [µM] | TGI (OVCAR-8 ovarian) [µM] | GI50 (IGROV1 ovarian) [µM] | TGI (IGROV1 ovarian) [µM] | GI50 (RXF 393 renal) [µM] | TGI (RXF 393 renal) [µM]
1 | COC(=O)[C@]12CC[C@@H](C)[C@H](C)[C@@H]1C1=CC[C@@H]3[C@@]4(C)C[C@@H](OC(C)=O)[C@H](O)[C@@](C)(COC(C)=O)[C@@H]4[C@H](O)C[C@@]3(C)[C@]1(C)CC2 | 2.35 | 11.7 | 1.89 | 4.84 | 2.51 | 9.01 | 2.23 | 7.61 | 1.63 | 3.2 | 2.33 | 6.06 | 2.73 | 8.44 | 2.36 | 5.91 | 1.87 | 4.81 | 2.13 | 5.05
2 | CCCC[C@H](NC(=O)[C@H]1CCCN1C)C(=O)N(C)[C@H](C[C@@H](OC(C)=O)c1nc(C(=O)N[C@@H](Cc2ccccc2)C[C@H](C)C(=O)OCC)cs1)C(C)C | 0.0152 | 8.92 | 0.0171 | 9.96 | 0.0365 | > 33.3 | 0.0642 | > 33.3 | 0.0132 | 0.0961 | 0.00726 | > 33.3 | 0.0594 | > 33.3 | 0.036 | > 33.3 | 0.0157 | > 33.3 | 0.00745 | 11.3
3 | COc1c2c(c3c(c1CCC(=O)O)OC(C)(C)C=C3)OC(C)(C)C=C2 | – | > 100 | – | > 100 | – | > 100 | – | > 100 | – | > 100 | – | > 100 | – | > 100 | – | > 100 | – | > 100 | – | > 100
4 | Nc1c(C(=O)Nc2cccc([N+](=O)[O-])c2)sc2nc3c(cc12)C(O)CCC3 (stereo not given) | 5.38 | 30.5 | 13.5 | > 100 | 2.82 | > 100 | > 100 | > 100 | 3.51 | > 100 | 0.852 | > 100 | > 100 | > 100 | 10.8 | > 100 | 26 | > 100 | 6.76 | > 65.8
5 | CNC(=O)OCc1nc(SC2CCCCO2)n(C)c1COC(=O)NC (stereo not given) | – | > 100 | – | > 100 | – | > 100 | – | > 100 | – | > 100 | – | > 100 | – | > 100 | – | > 100 | – | > 100 | – | > 100
6 | C1CCSCCCCSCCCCSCCCCSC1 | – | > 100 | – | > 100 | – | > 100 | – | > 100 | – | > 100 | – | > 100 | – | > 100 | – | > 100 | – | > 100 | – | > 100
